Measurements taken from BindingDB's records for doi:10.1021/jm00042a004 (College of Pharmacy, 1994).

How the values were obtained:
[1] = target: Reverse transcriptase/RNase H (HIV-1); assay: The 50% inhibitory concentration was measured as inhibition of RNA-dependent DNA polymerase activity
[2] = target: Reverse transcriptase/RNase H (HIV-1); assay: The 50% inhibitory concentration was measured as inhibition of DNA-dependent DNA polymerase activity

CCCCCCCCCCCCCCCC(=O)Nc1c(O)cc(S(=O)(=O)O)c2ccccc12 [4-Hexadecanoylamino-3-hydroxy-naphthalene-1-sulfonic acid]
IC50 [1]: 3.2 µM

CCCCCCCCCCCCCCCC(=O)Nc1ccc(S(=O)(=O)O)c2cccc(S(=O)(=O)O)c12 [4-Hexadecanoylamino-naphthalene-1,5-disulfonic acid]
IC50 [2]: 6.7 µM
IC50 [1]: 1.6 µM

O=S(=O)(O)c1ccc2c(OS(=O)(=O)c3cccc4c(S(=O)(=O)Oc5cc(S(=O)(=O)O)cc6cc(S(=O)(=O)O)ccc56)cccc34)cc(S(=O)(=O)O)cc2c1 [4-[5-(3,6-disulfo-1-naphthyloxysulfonyl)-1-naphthylsulfonyloxy]-2,7-naphthalenedisulfonic acid]
IC50 [2]: 91.3 µM
IC50 [1]: 4.3 µM

O=C(Oc1cc(S(=O)(=O)O)cc2cc(S(=O)(=O)O)ccc12)c1ccc(-c2ccc(C(=O)Oc3cc(S(=O)(=O)O)cc4cc(S(=O)(=O)O)ccc34)cc2)cc1 [Biphenyl-4,4'-dicarboxylic acid bis-(3,6-disulfo-naphthalen-1-yl) ester]
IC50 [2]: 6.9 µM
IC50 [1]: 3.4 µM
